Results published in patent US20240018133A1, “MODULATORS OF THE INTEGRATED STRESS PATHWAY” (Calico Life Sciences LLC, priority 2019, published 2024).

System: ATF4 luciferase reporter (human full-length ATF4 5'-UTR fused to firefly luciferase) in HEK293T cells
Test: ATF4-Luc assay (in vitro model of VWMD): HEK293T cells carrying ATF4 luciferase reporter, tunicamycin-treated
Type: cell-based
Conditions: Homo sapiens, HEK-293T, 1 μg/mL tunicamycin, 7 hours, One Glo luminescence
Protocol: In order to test exemplary compounds of the invention in a cellular context, a stable VWMD cell line was first constructed. The ATF4 reporter was prepared by fusing the human full-length ATF4 5′-UTR (NCBI Accession No. BC022088.2) in front of the firefly luciferase (FLuc) coding sequence lacking the initiator methionine as described in Sidrauski et al (eLife 2013). The construct was used to produce recombinant retroviruses using standard methods and the resulting viral supernatant was used to transduce HEK293T cells, which were then subsequently selected with puromycin to generate a stable cell line.
HEK293T cells carrying the ATF4 luciferase reporter were plated on polylysine coated 384-well plates (Greiner Bio-one) at 30,000 cells per well. Cells were treated the next day with 1 μg/mL tunicamycin and 200 nM of a compound of Formula (I) for 7 hours. Luminescence was measured using One Glo (Promega) as specified by the manufacturer. Cells were maintained in DMEM with L-glutamine supplemented with 10% heat-inactivated FBS (Gibco) and Antibiotic-Antimycotic solution (Gibco).
Table 2 below summarizes the EC50 data obtained using the ATF4-Luc assay for exemplary compounds of the invention.

Compound | EC50
O=C(COc1ccc(Cl)c(F)c1)NC12CC(NC(=O)C3=CC(O)c4cc(Cl)ccc4O3)(C1)C2 (centres unmarked) [Compound 315, 6-chloro-N-{3-[2-(4-chloro-3-fluorophenoxy)acetamido]bicyclo[1.1.1]pentan-1-yl}-4-hydroxy-4H-1-benzopyran-2-carboxamide] | < 0.01 µM
O=C(COc1ccc(C(F)(F)F)nc1)NC12CC(NC(=O)[C@H]3C[C@@H](O)c4cc(Cl)ccc4O3)(C1)C2 [Compound 226, (2R,4R)-6-chloro-4-hydroxy-N-[3-(2-{[6-(trifluoromethyl)pyridin-3-yl]oxy}acetamido)bicyclo[1.1.1]pentan-1-yl]-3,4-dihydro-2H-1-benzopyran-2-carboxamide] | < 0.01 µM
O=C(NC12CC(NC(=O)[C@H]3C[C@@H](O)c4cc(Cl)ccc4O3)(C1)C2)c1cnc(C2CN(CC(F)(F)F)C2)o1 [Compound 388, N-(3-{[(2R,4R)-6-chloro-4-hydroxy-3,4-dihydro-2H-1-benzopyran-2-carbonyl]amino}bicyclo[1.1.1]pentan-1-yl)-2-[1-(2,2,2-trifluoroethyl)azetidin-3-yl]-1,3-oxazole-5-carboxamide] | 0.25 to 0.5 µM
O=C(COc1ccc(F)c(F)c1)NC12CC(NC(=O)[C@H]3CC(=O)c4cc(F)c(F)cc4O3)(C1)C2 [Compound 271, (2R)—N-{3-[2-(3,4-difluorophenoxy)acetamido]bicyclo[1.1.1]pentan-1-yl}-6,7-difluoro-4-oxo-3,4-dihydro-2H-1-benzopyran-2-carboxamide] | 0.01 to 0.05 µM
CN1CC(C(=O)NC23CC(NC(=O)COc4ccc(Cl)c(F)c4)(C2)C3)Oc2ccc(Cl)cc21 (centres unmarked) [Compound 112, 6-chloro-N-{3-[2-(4-chloro-3-fluorophenoxy)acetamido]bicyclo[1.1.1]pentan-1-yl}-4-methyl-3,4-dihydro-2H-1,4-benzoxazine-2-carboxamide] | < 0.01 µM
O=C(COc1ccc(Cl)c(F)c1)NC12CC(NC(=O)C3C/C(=N\O)c4cc(F)ccc4O3)(C1)C2 (centres unmarked) [Compound 298, N-{3-[2-(4-chloro-3-fluorophenoxy)acetamido]bicyclo[1.1.1]pentan-1-yl}-6-fluoro-4-(hydroxyimino)-3,4-dihydro-2H-1-benzopyran-2-carboxamide] | 0.01 to 0.05 µM
CC1(C(=O)NC23CC(NC(=O)COc4ccc(Cl)c(F)c4)(C2)C3)CCc2cc(Cl)ccc2O1 (centres unmarked) [Compound 240, 6-chloro-N-{3-[2-(4-chloro-3-fluorophenoxy)acetamido]bicyclo[1.1.1]pentan-1-yl}-2-methyl-3,4-dihydro-2H-1-benzopyran-2-carboxamide] | 0.01 to 0.05 µM
COc1ccc2oc(C(=O)NC34CC(NC(=O)COc5ccc(Cl)c(F)c5)(C3)C4)cc(=O)c2c1 [Compound 287, N-{3-[2-(4-chloro-3-fluorophenoxy)acetamido]bicyclo[1.1.1]pentan-1-yl}-6-methoxy-4-oxo-4H-1-benzopyran-2-carboxamide] | 0.05 to 0.25 µM
O=C(COc1ccc(Cl)c(F)c1)NC12CCC(NC(=O)[C@@H]3C[C@H](O)c4cc(Cl)ccc4O3)(CC1)[C@@H](O)C2 (single isomer, unassigned) [Compound 239] | < 0.01 µM
O=C(COc1cnc(C(F)(F)F)nc1)NC12CC(NC(=O)[C@H]3C[C@@H](O)c4cc(Cl)ccc4O3)(C1)C2 [Compound 228, (2R,4R)-6-chloro-4-hydroxy-N-[3-(2-{[2-(trifluoromethyl)pyrimidin-5-yl]oxy}acetamido)bicyclo[1.1.1]pentan-1-yl]-3,4-dihydro-2H-1-benzopyran-2-carboxamide] | 0.01 to 0.05 µM
CNC1CC(C(=O)NC23CC(NC(=O)COc4ccc(Cl)c(F)c4)(C2)C3)Oc2ccc(Cl)cc21 (centres unmarked) [Compound 314, 6-chloro-N-{3-[2-(4-chloro-3-fluorophenoxy)acetamido]bicyclo[1.1.1]pentan-1-yl}-4-(methylamino)-3,4-dihydro-2H-1-benzopyran-2-carboxamide] | < 0.01 µM
O=C(COc1ccc(Cl)c(F)c1)NC12CC(NC(=O)[C@H]3C[C@@H](O)c4ccccc4O3)(C1)C2 [Compound 267, (2R,4R)—N-{3-[2-(4-chloro-3-fluorophenoxy)acetamido]bicyclo[1.1.1]pentan-1-yl}-4-hydroxy-3,4-dihydro-2H-1-benzopyran-2-carboxamide] | 0.01 to 0.05 µM
O=C(NC12CCC(NC(=O)[C@@H]3C[C@H](O)c4cc(Cl)ccc4O3)(CC1)CC2)c1ccc(OC(F)(F)F)cn1 [Compound 362, N-(4-{[(2S,4S)-6-chloro-4-hydroxy-3,4-dihydro-2H-1-benzopyran-2-carbonyl]amino}bicyclo[2.2.2]octan-1-yl)-5-(trifluoromethoxy)pyridine-2-carboxamide] | 0.5 to 2 µM
O=C(NC12CCC(NC(=O)[C@H]3C[C@@H](O)c4cc(Cl)ccc4O3)(C1)C2)c1ccc(OC(F)(F)F)cn1 (racemic) [Compound 293, N-(4-{[rac-(2R,4R)-6-chloro-4-hydroxy-3,4-dihydro-2H-1-benzopyran-2-carbonyl]amino}bicyclo[2.1.1]hexan-1-yl)-5-(trifluoromethoxy)pyridine-2-carboxamide] | 0.01 to 0.05 µM
O=C(COc1ccc(Cl)c(F)c1)NC12CC(NC(=O)C3CC(NC4COC4)c4cc(Cl)ccc4O3)(C1)C2 (centres unmarked) [Compound 349, 6-chloro-N-{3-[2-(4-chloro-3-fluorophenoxy)acetamido]bicyclo[1.1.1]pentan-1-yl}-4-[(oxetan-3-yl)amino]-3,4-dihydro-2H-1-benzopyran-2-carboxamide] | 0.01 to 0.05 µM
O=C(COc1ccc(Cl)c(F)c1)NC12CC(NC(=O)C3CN(C(=O)c4ccc(S(=O)(=O)F)cc4)c4cc(Cl)ccc4O3)(C1)C2 (centres unmarked) [Compound 147, 4-[6-chloro-2-({3-[2-(4-chloro-3-fluorophenoxy)acetamido]bicyclo[1.1.1]pentan-1-yl}carbamoyl)-2,3-dihydro-4H-1,4-benzoxazine-4-carbonyl]benzene-1-sulfonyl fluoride] | 0.5 to 2 µM
C[C@]1(O)C[C@@H](C(=O)NC23CC(NC(=O)COc4ccc(Cl)c(F)c4)(C2)C3)Oc2ccc(Cl)cc21 (single isomer, unassigned) [Compound 237] | < 0.01 µM
COc1ncc(OCC(=O)NC23CC(NC(=O)[C@H]4C[C@@H](O)c5cc(Cl)ccc5O4)(C2)C3)cn1 [Compound 227, (2R,4R)-6-chloro-4-hydroxy-N-(3-{2-[(2-methoxypyrimidin-5-yl)oxy]acetamido}bicyclo[1.1.1]pentan-1-yl)-3,4-dihydro-2H-1-benzopyran-2-carboxamide] | 0.05 to 0.25 µM
O=C(COc1ccc(Cl)c(F)c1)NC12CCC(NC(=O)C3CC(=O)c4cc(Cl)ccc4O3)(CC1)NC2=O (centres unmarked) [Compound 363, 6-chloro-N-{4-[2-(4-chloro-3-fluorophenoxy)acetamido]-3-oxo-2-azabicyclo[2.2.2]octan-1-yl}-4-oxo-3,4-dihydro-2H-1-benzopyran-2-carboxamide] | 0.01 to 0.05 µM
CC(C)(C)OC(=O)CN1C[C@@H](C(=O)NC23CCC(NC(=O)COc4ccc(Cl)c(F)c4)(CC2)[C@@H](O)C3)Oc2ccc(Cl)cc21 [Compound 184, tert-butyl [(2S)-6-chloro-2-({(3S)-4-[2-(4-chloro-3-fluorophenoxy)acetamido]-3-hydroxybicyclo[2.2.2]octan-1-yl}carbamoyl)-2,3-dihydro-4H-1,4-benzoxazin-4-yl]acetate] | 0.25 to 0.5 µM
O=C(COc1ccc(Cl)c(F)c1)NC12CC(NC(=O)c3cc(=O)c4cc(F)cc(F)c4o3)(C1)C2 [Compound 292, N-{3-[2-(4-chloro-3-fluorophenoxy)acetamido]bicyclo[1.1.1]pentan-1-yl}-6,8-difluoro-4-oxo-4H-1-benzopyran-2-carboxamide] | 0.05 to 0.25 µM
O=C(COc1ccc(Cl)c(F)c1)NC12CC(NC(=O)c3cc(=O)c4cc(Cl)cc(Cl)c4o3)(C1)C2 [Compound 289, 6,8-dichloro-N-{3-[2-(4-chloro-3-fluorophenoxy)acetamido]bicyclo[1.1.1]pentan-1-yl}-4-oxo-4H-1-benzopyran-2-carboxamide] | 0.5 to 2 µM
O=C(NC12CC(NC(=O)[C@H]3C[C@@H](O)c4cc(Cl)ccc4O3)(C1)C2)c1ccc(OC(F)(F)F)cn1 [Compound 376, N-(3-{[(2R,4R)-6-chloro-4-hydroxy-3,4-dihydro-2H-1-benzopyran-2-carbonyl]amino}bicyclo[1.1.1]pentan-1-yl)-5-(trifluoromethoxy)pyridine-2-carboxamide] | 0.01 to 0.05 µM
Cc1ccc2oc(C(=O)NC34CC(NC(=O)COc5ccc(Cl)c(F)c5)(C3)C4)cc(=O)c2c1 [Compound 341, N-{3-[2-(4-chloro-3-fluorophenoxy)acetamido]bicyclo[1.1.1]pentan-1-yl}-6-methyl-4-oxo-4H-1-benzopyran-2-carboxamide] | < 0.01 µM
O=C(COc1ccc(Cl)c(F)c1)NC12CC(NC(=O)[C@H]3C[C@@H](O)c4cc(Cl)c(F)cc4O3)(C1)C2 [Compound 264, (2R,4R)-6-chloro-N-{3-[2-(4-chloro-3-fluorophenoxy)acetamido]bicyclo[1.1.1]pentan-1-yl}-7-fluoro-4-hydroxy-3,4-dihydro-2H-1-benzopyran-2-carboxamide] | < 0.01 µM
Cc1cc(OCC(=O)NC23CC(NC(=O)[C@H]4C[C@@H](O)c5cc(F)c(F)cc5O4)(C2)C3)ccc1F [Compound 359, (2R,4R)-6,7-difluoro-N-{3-[2-(4-fluoro-3-methylphenoxy)acetamido]bicyclo[1.1.1]pentan-1-yl}-4-hydroxy-3,4-dihydro-2H-1-benzopyran-2-carboxamide] | < 0.01 µM
